Results from ChEMBL document CHEMBL4017441, “Mitigating the inhibition of human bile salt export pump by drugs: opportunities provided by physicochemical property modulation, in silico modeling, and structural modification” (Drug Metab Dispos, 2012).
pIC50: −log10 of the molar value.

What follows are compounds tested against Bile salt export pump (Homo sapiens, UniProt O95342).
Type: ADME

SMILES | pIC50
CCCCNc1ccc(C(=O)OCCN(C)C)cc1 [TETRACAINE] | 3.29
COc1cc2c(cc1OC)C(=O)C(CC1CCN(Cc3ccccc3)CC1)C2 (configuration not stated) [DONEPEZIL] | 3.84
CN[C@]1(C)[C@H]2CC[C@H](C2)C1(C)C | < 3.00
COC(=O)C1=C(C)NC(C)=C(C(=O)OCCN(C)Cc2ccccc2)C1c1cccc([N+](=O)[O-])c1 (configuration not stated) [NICARDIPINE] | > 5.00
O=C(NCCc1ccccc1Cl)c1cc(-n2ncc(=O)[nH]c2=O)ccc1Cl | 4.46
O=C(O)c1cc2scnc2n1Cc1ccc(Cl)c(Cl)c1 | 4.65
Cc1ccc(NC(=O)c2ccc(CN3CCN(C)CC3)cc2)cc1Nc1nccc(-c2cccnc2)n1 [IMATINIB] | > 5.00
O=C1C(O)=C(O)C(=O)C(O)=C1O [TETROQUINONE] | < 3.00
O=C(CCCN1CC=C(n2c(=O)[nH]c3ccccc32)CC1)c1ccc(F)cc1 [DROPERIDOL] | > 5.00
CCCCc1ccc2[nH]c(NC(=O)OC)nc2c1 [PARBENDAZOLE] | < 3.00
NS(=O)(=O)c1cc(Cl)c(Cl)c(S(N)(=O)=O)c1 [DICHLORPHENAMIDE] | < 3.04
CC(=O)Oc1ccc(C(c2ccc(OC(C)=O)cc2)c2ccccn2)cc1 [BISACODYL] | 4.25
C[C@]12C=CC(=O)C=C1CC[C@H]1[C@@H]3C[C@@H](O)[C@](O)(C(=O)CO)[C@@]3(C)C[C@H](O)[C@@]12F [TRIAMCINOLONE] | 3.63
Oc1c(I)cc(I)c2cccnc12 [IODOQUINOL] | < 3.00
CN(C)c1nc(N(C)C)nc(N(C)C)n1 [ALTRETAMINE] | < 3.00
Cc1cc(O)cc(C)c1Cl [CHLOROXYLENOL] | 3.89
CC(C)(C)c1ccc(C(O)CCCN2CCC(C(O)(c3ccccc3)c3ccccc3)CC2)cc1 (configuration not stated) [TERFENADINE] | > 4.76
CCN1CCCC1CNC(=O)c1cc(S(N)(=O)=O)ccc1OC (configuration not stated) [SULPIRIDE] | 3.56
CC1=C(C(=O)O)N2C(=O)[C@@H](NC(=O)C(N)C3=CCC=CC3)C2SC1 (some centres not stated) | < 3.00
CCCC(=O)c1cnc2c(OCC[S+](C)[O-])cccc2c1Nc1ccc(F)cc1C (configuration not stated) | > 5.00
CSCCNc1nc(SCCC(F)(F)F)nc2c1ncn2[C@@H]1O[C@H](COP(=O)(O)OP(=O)(O)C(Cl)(Cl)P(=O)(O)O)[C@@H](O)[C@H]1O [CANGRELOR] | < 3.00
CC(C)(C)NCC(O)COc1cccc2c1CC(O)C(O)C2 (configuration not stated) [NADOLOL] | < 3.00
N=C(N)NCCN1CCCCCCC1 [GUANETHIDINE] | < 3.00

SMILES | pIC50
CC[C@H](NC(=O)c1c(O)c(-c2ccccc2)nc2ccccc12)c1ccccc1 [TALNETANT] | > 5.00
CN1CCN(C2=Nc3cc(Cl)ccc3Nc3ccccc32)CC1 [CLOZAPINE] | 4.12
CN(CCOc1ccc(NS(C)(=O)=O)cc1)CCc1ccc(NS(C)(=O)=O)cc1 [DOFETILIDE] | 3.15
C[C@]12CCC(=O)C=C1CC[C@@H]1[C@@H]2[C@@H](O)C[C@@]2(C)[C@H]1CC[C@]2(O)C(=O)CO [HYDROCORTISONE] | 3.60
CCCc1ncc(C[n+]2ccccc2C)c(N)n1 [AMPROLIUM ION] | < 3.00
CN(C)CC/C=C1/c2ccccc2Sc2ccc(Cl)cc21 [CHLORPROTHIXENE] | 4.56
COc1ccc(CC(N)C(=O)N[C@@H]2[C@@H](CO)OC(n3cnc4c(N(C)C)ncnc43)[C@@H]2O)cc1 (some centres not stated) | < 3.10
Nc1nc2c(c(=O)[nH]1)N(C=O)C(CNc1ccc(C(=O)N[C@@H](CCC(=O)O)C(=O)O)cc1)CN2 (some centres not stated) [LEUCOVORIN] | < 3.00
Clc1ccc(COC(Cn2ccnc2)c2ccc(Cl)cc2Cl)c(Cl)c1 (configuration not stated) [MICONAZOLE] | > 5.00
C[n+]1ccccc1/C=N/O [PRALIDOXIME] | < 3.00
COC(=O)[C@H]1[C@H]2C[C@@H]3c4[nH]c5cc(OC)ccc5c4CCN3C[C@H]2C[C@@H](OC(=O)c2cc(OC)c(OC)c(OC)c2)[C@@H]1OC [RESERPINE] | > 5.00
Cc1scc2c1N(C(=O)CN1CCN(C)CC1)c1ccccc1NC2=O [TELENZEPINE] | 3.50
O=CN(O)C(CCc1ccccc1)CS(=O)(=O)N1CCN(c2ccc(Cl)cn2)CC1 (configuration not stated) | > 5.00
CC(C)NNC(=O)c1ccncc1 [IPRONIAZID] | < 3.02
CCc1cc(CC)c2oc(C(=O)O)cc(=O)c2c1O | 3.95
CCCCOC(=O)c1ccc(N)cc1 [BUTAMBEN] | 3.74
CN(C)CCOC(C)(c1ccccc1)c1ccccn1 (configuration not stated) [DOXYLAMINE] | < 3.00
Oc1ccc(C(O)CNCCCCCCNCC(O)c2ccc(O)c(O)c2)cc1O (configuration not stated) [HEXOPRENALINE] | < 3.00
O=c1[nH]c(=O)n([C@H]2C[C@H](O)[C@@H](CO)O2)cc1C(F)(F)F [TRIFLURIDINE] | < 3.00
C[C@H](CCC(=O)O)[C@H]1CC[C@H]2[C@@H]3[C@@H](O)C[C@@H]4C[C@H](O)CC[C@]4(C)[C@H]3CC[C@]12C [URSODIOL] | > 5.00
CN(C)C(=O)c1ccc(S(=O)(=O)c2ccc(NC(=O)[C@@](C)(O)C(F)(F)F)c(Cl)c2)cc1 | > 4.89
CC(C)[C@H](O)C(=O)N[C@@H](C)C(=O)N[C@@H]1C(=O)N(C)CCc2ccccc21 | 3.33
C1CCC(C(CC2CCCCN2)C2CCCCC2)CC1 (configuration not stated) [PERHEXILINE] | 4.84

SMILES | pIC50
CC(=O)Nc1ccc(CC(=O)O)cc1 [ACTARIT] | < 3.00
NC(=O)CN1CCCC1=O | < 3.00
O=C1CN(/N=C/c2ccc(-c3ccc([N+](=O)[O-])cc3)o2)C(O)=N1 [DANTROLENE] | 3.84
CCCCCC(O)C1C(=O)OC(C)C(O)/C=C/C=C/C=C/C=C/C=C(/C)C(O)CC(O)CC(O)CC(O)CC(O)CC(O)CC1O (configuration not stated) | 3.79
Nc1nc(NCCN2CCOCC2)nc2nc(-c3ccco3)nn12 | < 3.00
[H]/N=C(/N)N/C(=N/[H])NCCc1ccccc1 [PHENFORMIN] | < 3.00
Cc1ccc(NC(=O)c2cccc3c2oc2ccccc23)cc1NC(=O)c1cccc(OC2CCN(C(C)C)CC2)c1 | > 5.00
O=C(O)CCC(=O)Nc1ccc(S(=O)(=O)Nc2nccs2)cc1 [SUCCINYLSULFATHIAZOLE] | < 3.00
C[C@]12CC[C@H]3[C@@H](CCC4=CC(=O)CC[C@@]43C)[C@@H]1CC[C@@H]2C(=O)CO [DESOXYCORTICOSTERONE] | 4.77
NC(=O)c1cc([N+](=O)[O-])cc([N+](=O)[O-])c1 [NITROMIDE] | 3.73
C[C@@](O)(C(=O)Nc1ccc(S(=O)(=O)c2ccc(NCCO)cc2)cc1Cl)C(F)(F)F | 4.56
NS(=O)(=O)c1cc2c(cc1Cl)N=C(CSCc1ccccc1)NS2(=O)=O [BENZTHIAZIDE] | 4.24
CCN(CC)CCOC(=O)C(Cc1cccc2ccccc12)CC1CCCO1 (configuration not stated) [NAFRONYL] | > 4.96
CC(COc1ccccc1)NC(C)C(O)c1ccc(O)cc1 (configuration not stated) [ISOXSUPRINE] | 3.24
COC1C(OC(=O)/C=C/C=C/C=C/C=C/C(=O)O)CCC2(CO2)C1C1(C)OC1CC=C(C)C (configuration not stated) | 4.59
CC(C)(Sc1cc(C(C)(C)C)c(O)c(C(C)(C)C)c1)Sc1cc(C(C)(C)C)c(O)c(C(C)(C)C)c1 [PROBUCOL] | < 3.00
CN1CCN(CC/C=C2/c3ccccc3Sc3ccc(S(=O)(=O)N(C)C)cc32)CC1 [THIOTHIXENE] | 4.52
CCCCNc1cc(C(=O)O)cc(S(N)(=O)=O)c1Oc1ccccc1 [BUMETANIDE] | 3.28
CCCn1c(=O)[nH]c(=O)c2[nH]cnc21 [ENPROFYLLINE] | < 3.00
Cc1ccc2c(c1)c(-c1ccnc3c(C(F)(F)F)cccc13)c(C)n2CC(=O)O | > 5.00
COc1cc2c(Oc3ccc4[nH]c(C)cc4c3F)ncnc2cc1OCCCN1CCCCC1 | 4.64
